According to ChEMBL document CHEMBL1121849, “Synthetic antagonists of in vivo antidiuretic and vasopressor responses to arginine-vasopressin” (J Med Chem, 1981):
Starred links: 1 amine or outer side, 2 acyl side, 3 side chain; linkers in the order of their positions; H or OH if unused. Positions of bridges follow the written chain, without caps; N, C: chain ends. Non-standard residues stand in square brackets, D forms with d. Residues, ends and D or L forms follow the SMILES beside them. *: point of attachment. X1 = O=C(CC1(S[*:2])CCCCC1)[*:1]; iPr = CC(C)*

Legend:
Rattus norvegicus [1] = assay: Tested in vivo for antidiuretic potency injected intraperitoneally in rats under ethanol anesthesia; type: ADME, organism-based, Urine; details: ip
[2] = In vivo antidiuretic antagonistic activity expressed as negative logarithm of the effective dose divided by the estimated volume of distribution (67 mL/kg).; type: ADME, organism-based; details: Urine; read-out: pA2 (converted)
Rattus norvegicus [3] = assay: In vivo anti-vasopressor antagonistic activity expressed as negative logarithm of the effective dose divided by the estimated volume of distribution (67 mL/kg).; type: ADME, organism-based; details: read-out: pA2 (converted)
Rattus norvegicus [4] = assay: Tested in vivo for anti-vasopressor potency injected intraperitoneally in phenoxybenzamine-treated rats under urethane anesthesia; type: functional

SMILES | ED (Rattus norvegicus [1]) | Kb [2] | Kb (Rattus norvegicus [3]) | ED (Rattus norvegicus [4])
CCCOc1ccc(C[C@@H]2NC(=O)CC3(CCCCC3)SSC[C@@H](C(=O)N3CCC[C@H]3C(=O)N[C@@H](CCCN=C(N)N)C(=O)NCC(N)=O)NC(=O)[C@H](CC(N)=O)NC(=O)[C@H](C(C)C)NC(=O)[C@H](Cc3ccccc3)NC2=O)cc1 [listing 1 of 2 here] | 3.5 nM/kg | 51.3 nM | 6.03 nM | 
CCCOc1ccc(C[C@@H]2NC(=O)CC3(CCCCC3)SSC[C@@H](C(=O)N3CCC[C@H]3C(=O)N[C@@H](CCCN=C(N)N)C(=O)NCC(N)=O)NC(=O)[C@H](CC(N)=O)NC(=O)[C@H](C(C)C)NC(=O)[C@H](Cc3ccccc3)NC2=O)cc1 [listing 2 of 2 here] |  |  |  | 0.4 nM/kg
CCCOc1ccc(C[C@@H]2NC(=O)CC3(CCCCC3)SSC[C@@H](C(=O)N3CCC[C@H]3C(=O)N[C@H](CCCN=C(N)N)C(=O)NCC(N)=O)NC(=O)[C@H](CC(N)=O)NC(=O)[C@H](C(C)C)NC(=O)[C@H](Cc3ccccc3)NC2=O)cc1 [listing 1 of 2 here] | 14 nM/kg | 214 nM | 13.8 nM | 
CCCOc1ccc(C[C@@H]2NC(=O)CC3(CCCCC3)SSC[C@@H](C(=O)N3CCC[C@H]3C(=O)N[C@H](CCCN=C(N)N)C(=O)NCC(N)=O)NC(=O)[C@H](CC(N)=O)NC(=O)[C@H](C(C)C)NC(=O)[C@H](Cc3ccccc3)NC2=O)cc1 [listing 2 of 2 here] |  |  |  | 1.1 nM/kg
CCOc1ccc(C[C@@H]2NC(=O)CC3(CCCCC3)SSC[C@@H](C(=O)N3CCC[C@H]3C(=O)N[C@@H](CCCN=C(N)N)C(=O)NCC(N)=O)NC(=O)[C@H](CC(N)=O)NC(=O)[C@H](C(C)C)NC(=O)[C@H](Cc3ccccc3)NC2=O)cc1 (Y(Et)FVNCPRG-NH2; linker N-5 via X1) [listing 1 of 2 here] | 1.9 nM/kg | 26.9 nM | 6.92 nM | 
CCOc1ccc(C[C@@H]2NC(=O)CC3(CCCCC3)SSC[C@@H](C(=O)N3CCC[C@H]3C(=O)N[C@@H](CCCN=C(N)N)C(=O)NCC(N)=O)NC(=O)[C@H](CC(N)=O)NC(=O)[C@H](C(C)C)NC(=O)[C@H](Cc3ccccc3)NC2=O)cc1 (Y(Et)FVNCPRG-NH2; linker N-5 via X1) [listing 2 of 2 here] |  |  |  | 0.49 nM/kg
CCOc1ccc(C[C@@H]2NC(=O)CC3(CCCCC3)SSC[C@@H](C(=O)N3CCC[C@H]3C(=O)N[C@H](CCCN=C(N)N)C(=O)NCC(N)=O)NC(=O)[C@H](CC(N)=O)NC(=O)[C@H](C(C)C)NC(=O)[C@H](Cc3ccccc3)NC2=O)cc1 (Y(Et)FVNCP[dR]G-NH2; linker N-5 via X1) [listing 1 of 2 here] | 5.7 nM/kg | 79.4 nM |  | 
CCOc1ccc(C[C@@H]2NC(=O)CC3(CCCCC3)SSC[C@@H](C(=O)N3CCC[C@H]3C(=O)N[C@H](CCCN=C(N)N)C(=O)NCC(N)=O)NC(=O)[C@H](CC(N)=O)NC(=O)[C@H](C(C)C)NC(=O)[C@H](Cc3ccccc3)NC2=O)cc1 (Y(Et)FVNCP[dR]G-NH2; linker N-5 via X1) [listing 2 of 2 here] |  |  |  | 0.34 nM/kg
COc1ccc(C[C@@H]2NC(=O)CC3(CCCCC3)SSC[C@@H](C(=O)N3CCC[C@H]3C(=O)N[C@@H](CCCN=C(N)N)C(=O)NCC(N)=O)NC(=O)[C@H](CC(N)=O)NC(=O)[C@H](C(C)C)NC(=O)[C@H](Cc3ccccc3)NC2=O)cc1 (Y(Me)FVNCPRG-NH2; linker N-5 via X1) [listing 1 of 2 here] | 3.1 nM/kg | 44.7 nM | 4.79 nM | 
COc1ccc(C[C@@H]2NC(=O)CC3(CCCCC3)SSC[C@@H](C(=O)N3CCC[C@H]3C(=O)N[C@@H](CCCN=C(N)N)C(=O)NCC(N)=O)NC(=O)[C@H](CC(N)=O)NC(=O)[C@H](C(C)C)NC(=O)[C@H](Cc3ccccc3)NC2=O)cc1 (Y(Me)FVNCPRG-NH2; linker N-5 via X1) [listing 2 of 2 here] |  |  |  | 0.29 nM/kg
COc1ccc(C[C@@H]2NC(=O)CC3(CCCCC3)SSC[C@@H](C(=O)N3CCC[C@H]3C(=O)N[C@H](CCCN=C(N)N)C(=O)NCC(N)=O)NC(=O)[C@H](CC(N)=O)NC(=O)[C@H](C(C)C)NC(=O)[C@H](Cc3ccccc3)NC2=O)cc1 (Y(Me)FVNCP[dR]G-NH2; linker N-5 via X1) [listing 1 of 2 here] | 15 nM/kg | 209 nM | 3.63 nM | 
COc1ccc(C[C@@H]2NC(=O)CC3(CCCCC3)SSC[C@@H](C(=O)N3CCC[C@H]3C(=O)N[C@H](CCCN=C(N)N)C(=O)NCC(N)=O)NC(=O)[C@H](CC(N)=O)NC(=O)[C@H](C(C)C)NC(=O)[C@H](Cc3ccccc3)NC2=O)cc1 (Y(Me)FVNCP[dR]G-NH2; linker N-5 via X1) [listing 2 of 2 here] |  |  |  | 0.28 nM/kg
CC(C)Oc1ccc(C[C@@H]2NC(=O)CC3(CCCCC3)SSC[C@@H](C(=O)N3CCC[C@H]3C(=O)N[C@@H](CCCN=C(N)N)C(=O)NCC(N)=O)NC(=O)[C@H](CC(N)=O)NC(=O)[C@H](C(C)C)NC(=O)[C@H](Cc3ccccc3)NC2=O)cc1 (Y(iPr)FVNCPRG-NH2; linker N-5 via X1) [listing 1 of 2 here] | 3.6 nM/kg | 47.9 nM | 4.37 nM | 
CC(C)Oc1ccc(C[C@@H]2NC(=O)CC3(CCCCC3)SSC[C@@H](C(=O)N3CCC[C@H]3C(=O)N[C@@H](CCCN=C(N)N)C(=O)NCC(N)=O)NC(=O)[C@H](CC(N)=O)NC(=O)[C@H](C(C)C)NC(=O)[C@H](Cc3ccccc3)NC2=O)cc1 (Y(iPr)FVNCPRG-NH2; linker N-5 via X1) [listing 2 of 2 here] |  |  |  | 0.31 nM/kg
CC(C)Oc1ccc(C[C@@H]2NC(=O)CC3(CCCCC3)SSC[C@@H](C(=O)N3CCC[C@H]3C(=O)N[C@H](CCCN=C(N)N)C(=O)NCC(N)=O)NC(=O)[C@H](CC(N)=O)NC(=O)[C@H](C(C)C)NC(=O)[C@H](Cc3ccccc3)NC2=O)cc1 (Y(iPr)FVNCP[dR]G-NH2; linker N-5 via X1) [listing 1 of 2 here] | 8.5 nM/kg | 132 nM | 3.89 nM | 
CC(C)Oc1ccc(C[C@@H]2NC(=O)CC3(CCCCC3)SSC[C@@H](C(=O)N3CCC[C@H]3C(=O)N[C@H](CCCN=C(N)N)C(=O)NCC(N)=O)NC(=O)[C@H](CC(N)=O)NC(=O)[C@H](C(C)C)NC(=O)[C@H](Cc3ccccc3)NC2=O)cc1 (Y(iPr)FVNCP[dR]G-NH2; linker N-5 via X1) [listing 2 of 2 here] |  |  |  | 0.28 nM/kg
